Results on four molecules are retold here after PubChem BioAssay (NCI).

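Test compounds were applied to cells in 96-well plates for 48 hours at 5 doses. Definition used: TGI = concentration required for complete inhibition of growth.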

The first test has as its system HOP-62 NSCLC. Briefly: DTP human tumour cell line panel, 48 h.
One may read the TGI as the concentration giving total growth inhibition. `Cc1coc2c1CC1(C)C(CCC(O)C1C)C2` (stereo unspecified): the concentration for total growth inhibition (TGI) is over 100 µM.
In turn, `C=C(Br)C(C)(Cl)CCC(Br)C(C)(C)Cl` (stereo unspecified) had a TGI of over 100 µM.

The test system of a further test is HOP-92 NSCLC. Briefly: DTP human tumour cell line panel, 48 h.
For `O=C(CCC(=O)c1ccc(Cl)cc1)NO`, the total growth inhibition concentration (TGI) was over 100 µM.
Same read-out and setting: as for `O=C(O)CSc1ccc([N+](=O)[O-])cc1[N+](=O)[O-]`, the figure is over 100 µM; as for `Cc1coc2c1CC1(C)C(CCC(O)C1C)C2` (stereo unspecified), over 100 µM; as for `C=C(Br)C(C)(Cl)CCC(Br)C(C)(C)Cl` (stereo unspecified), 95.6 µM.

A further test deals with HS 578T breast. Briefly: DTP human tumour cell line panel, 48 h.
Molecule `O=C(CCC(=O)c1ccc(Cl)cc1)NO` returned a concentration for total growth inhibition (TGI) of over 100 µM.
The molecule `O=C(O)CSc1ccc([N+](=O)[O-])cc1[N+](=O)[O-]` returned a TGI of over 100 µM.
Take `Cc1coc2c1CC1(C)C(CCC(O)C1C)C2` (stereo unspecified): the TGI is over 100 µM.
In turn, `C=C(Br)C(C)(Cl)CCC(Br)C(C)(C)Cl` (stereo unspecified) had a TGI of over 100 µM.

A further test deals with HT29 colon. Description: DTP human tumour cell line panel, 48 h.
Regarding `O=C(CCC(=O)c1ccc(Cl)cc1)NO`, the TGI was over 100 µM.
The same measure, in the same setting: as for `O=C(O)CSc1ccc([N+](=O)[O-])cc1[N+](=O)[O-]`, the figure is over 100 µM; as for `Cc1coc2c1CC1(C)C(CCC(O)C1C)C2` (stereo unspecified), over 100 µM.
Same read-out and setting: as for `C=C(Br)C(C)(Cl)CCC(Br)C(C)(C)Cl` (stereo unspecified), the figure is over 100 µM.

The subject of a further test is IGROV1 ovarian. Description: DTP human tumour cell line panel, 48 h.
`O=C(CCC(=O)c1ccc(Cl)cc1)NO` registered a TGI of over 100 µM.
Take `O=C(O)CSc1ccc([N+](=O)[O-])cc1[N+](=O)[O-]`: the TGI was over 100 µM.
Still for that read-out and setting: as for `Cc1coc2c1CC1(C)C(CCC(O)C1C)C2` (stereo unspecified), the figure is over 100 µM; as for `C=C(Br)C(C)(Cl)CCC(Br)C(C)(C)Cl` (stereo unspecified), over 100 µM.

The subject of a further test is K-562 leukemia. Briefly: DTP human tumour cell line panel, 48 h.
The molecule `O=C(CCC(=O)c1ccc(Cl)cc1)NO` yielded a TGI of over 100 µM.
Regarding `O=C(O)CSc1ccc([N+](=O)[O-])cc1[N+](=O)[O-]`, the concentration for total growth inhibition (TGI) was over 100 µM.
Take `Cc1coc2c1CC1(C)C(CCC(O)C1C)C2` (stereo unspecified): the total growth inhibition concentration (TGI) is over 100 µM.
In turn, `C=C(Br)C(C)(Cl)CCC(Br)C(C)(C)Cl` (stereo unspecified) showed a concentration for total growth inhibition (TGI) of over 100 µM.

Another test relates to KM12 colon. Briefly: DTP human tumour cell line panel, 48 h.
In the case of `O=C(CCC(=O)c1ccc(Cl)cc1)NO`, the TGI was over 100 µM.
In turn, `O=C(O)CSc1ccc([N+](=O)[O-])cc1[N+](=O)[O-]` came in with a TGI of over 100 µM.
`Cc1coc2c1CC1(C)C(CCC(O)C1C)C2` (stereo unspecified) had a total growth inhibition concentration (TGI) of over 100 µM.
On the same count and under the same terms, as for `C=C(Br)C(C)(Cl)CCC(Br)C(C)(C)Cl` (stereo unspecified), the figure is over 100 µM.

The subject of the next test is LOX IMVI melanoma. Description: DTP human tumour cell line panel, 48 h.
`O=C(CCC(=O)c1ccc(Cl)cc1)NO`: the concentration for total growth inhibition (TGI) is over 100 µM.
Molecule `O=C(O)CSc1ccc([N+](=O)[O-])cc1[N+](=O)[O-]` showed a TGI of over 100 µM.
As for `Cc1coc2c1CC1(C)C(CCC(O)C1C)C2` (stereo unspecified), the total growth inhibition concentration (TGI) is over 100 µM.
Regarding `C=C(Br)C(C)(Cl)CCC(Br)C(C)(C)Cl` (stereo unspecified), the concentration for total growth inhibition (TGI) turned out to be 38 µM.

The subject of a further test is M14 melanoma. Briefly: DTP human tumour cell line panel, 48 h.
Take `O=C(CCC(=O)c1ccc(Cl)cc1)NO`: the TGI was over 100 µM.
Same read-out and setting: as for `O=C(O)CSc1ccc([N+](=O)[O-])cc1[N+](=O)[O-]`, the figure is over 100 µM; as for `Cc1coc2c1CC1(C)C(CCC(O)C1C)C2` (stereo unspecified), over 100 µM; as for `C=C(Br)C(C)(Cl)CCC(Br)C(C)(C)Cl` (stereo unspecified), over 100 µM.

The next test relates to MALME-3M melanoma. Briefly: DTP human tumour cell line panel, 48 h.
In the case of `O=C(O)CSc1ccc([N+](=O)[O-])cc1[N+](=O)[O-]`, the total growth inhibition concentration (TGI) was over 100 µM.
Same read-out and setting: as for `Cc1coc2c1CC1(C)C(CCC(O)C1C)C2` (stereo unspecified), the figure is over 100 µM; as for `C=C(Br)C(C)(Cl)CCC(Br)C(C)(C)Cl` (stereo unspecified), 57.8 µM.

Another test relates to MCF7 breast. Description: DTP human tumour cell line panel, 48 h.
As for `O=C(CCC(=O)c1ccc(Cl)cc1)NO`, the concentration for total growth inhibition (TGI) was over 100 µM.
Turning to `O=C(O)CSc1ccc([N+](=O)[O-])cc1[N+](=O)[O-]`, the TGI is over 100 µM.
On the same count and under the same terms, as for `Cc1coc2c1CC1(C)C(CCC(O)C1C)C2` (stereo unspecified), the figure is over 100 µM.
On to `C=C(Br)C(C)(Cl)CCC(Br)C(C)(C)Cl` (stereo unspecified), for which the TGI is over 100 µM.

The test system of the next test is MDA-MB-231 breast. Description: DTP human tumour cell line panel, 48 h.
The molecule `O=C(CCC(=O)c1ccc(Cl)cc1)NO` yielded a concentration for total growth inhibition (TGI) of over 100 µM.
Still for that read-out and setting: as for `O=C(O)CSc1ccc([N+](=O)[O-])cc1[N+](=O)[O-]`, the figure is over 100 µM.
`Cc1coc2c1CC1(C)C(CCC(O)C1C)C2` (stereo unspecified) yielded a TGI of over 100 µM.
Molecule `C=C(Br)C(C)(Cl)CCC(Br)C(C)(C)Cl` (stereo unspecified) gave a TGI of over 100 µM.

For a further test, the system named is MDA-MB-435. Description: DTP human tumour cell line panel, 48 h.
In turn, `O=C(CCC(=O)c1ccc(Cl)cc1)NO` came in with a TGI of over 100 µM.
The same measure, in the same setting: as for `O=C(O)CSc1ccc([N+](=O)[O-])cc1[N+](=O)[O-]`, the figure is over 100 µM.
`Cc1coc2c1CC1(C)C(CCC(O)C1C)C2` (stereo unspecified) came in with a concentration for total growth inhibition (TGI) of over 100 µM.
Still for that read-out and setting: as for `C=C(Br)C(C)(Cl)CCC(Br)C(C)(C)Cl` (stereo unspecified), the figure is 86.3 µM.

The subject of the next test is MDA-N. Description: DTP human tumour cell line panel, 48 h.
Regarding `O=C(CCC(=O)c1ccc(Cl)cc1)NO`, the total growth inhibition concentration (TGI) was over 100 µM.
The molecule `O=C(O)CSc1ccc([N+](=O)[O-])cc1[N+](=O)[O-]` had a TGI of over 100 µM.
Regarding `Cc1coc2c1CC1(C)C(CCC(O)C1C)C2` (stereo unspecified), the TGI is over 100 µM.
`C=C(Br)C(C)(Cl)CCC(Br)C(C)(C)Cl` (stereo unspecified) displayed a total growth inhibition concentration (TGI) of over 100 µM.

A further test relates to MOLT-4 leukemia. Briefly: DTP human tumour cell line panel, 48 h.
In the case of `O=C(CCC(=O)c1ccc(Cl)cc1)NO`, the TGI was over 100 µM.
Still for that read-out and setting: as for `Cc1coc2c1CC1(C)C(CCC(O)C1C)C2` (stereo unspecified), the figure is over 100 µM; as for `C=C(Br)C(C)(Cl)CCC(Br)C(C)(C)Cl` (stereo unspecified), over 100 µM.
